The results in this text go back to patent US20100041590A1, “Compounds” (priority 2006, published 2010).

Where a name gives a salt, the structure may show the parent alone.

In the assay the target is T1, SCD (SCD-containing rat microsomes) (Rattus norvegicus, UniProt P07308).
T1 construct: SCD-containing rat microsomes (2 μg protein); from tissue
T1 sequence (P07308 1-358): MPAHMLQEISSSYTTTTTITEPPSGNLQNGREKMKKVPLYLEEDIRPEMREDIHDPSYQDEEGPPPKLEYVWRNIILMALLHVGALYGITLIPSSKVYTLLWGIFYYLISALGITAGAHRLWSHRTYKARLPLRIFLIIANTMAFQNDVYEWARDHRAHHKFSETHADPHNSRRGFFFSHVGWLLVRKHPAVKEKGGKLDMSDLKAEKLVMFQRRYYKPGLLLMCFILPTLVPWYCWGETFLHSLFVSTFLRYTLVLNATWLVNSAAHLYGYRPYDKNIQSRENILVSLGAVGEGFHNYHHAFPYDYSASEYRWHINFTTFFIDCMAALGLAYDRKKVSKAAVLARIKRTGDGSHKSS
In words: in vitro assay for SCD activity based on production of [3H]H2O from [9,10-3H] stearoyl Coenzyme A. It is filed as biochemical. Conditions: SCD-containing rat microsomes (2 μg protein), substrate 1 μM, 6 min incubation, 5 min preincubation with compound; read-out: average pIC50 value, in vitro assay for SCD activity (converted). The procedure:
The compounds of the present invention may be analysed in vitro for SCD activity using an assay based on the production of [^3H]H2O, which is released during the enzyme-catalyzed generation of the monounsaturated fatty acyl CoA product. The assay is performed in a 96-well filtration plates. The titrated substrate used in the assay is the [9,10-^3H] stearoyl Coenzyme A. After incubation for 6 minutes of SCD-containing rat microsomes (2 μg protein) and substrate (1 μM), the labelled fatty acid acyl-CoA species and microsomes are absorbed with charcoal and separated from [^3H]H2O by centrifugation. The formation of [^3H]H2O is used as a measure of SCD activity. Compounds at concentrations starting at 10 μM to 0.1 nM or vehicle (DMSO) are preincubated for 5 minutes with the microsomes before addition of the substrate. The concentration-responses are fitted with sigmoidal curves to obtain IC50 values.
With `CC(C)COc1ccc(Cl)cc1Cn1nc(C(=O)Nc2ccc3c(c2)CCNC3)cc1C1CC1` [1-({5-chloro-2-[(2-methylpropyl)oxy]phenyl}methyl)-5-cyclopropyl-N-(1,2,3,4-tetrahydro-6-isoquinolinyl)-1H-pyrazole-3-carboxamide hydrochloride], the IC50 is more than 10 µM.

Turning to `CCCc1cc(C(=O)Nc2ccc3c(c2)CCNC3)nn1Cc1cc(Cl)ccc1OCC(C)C` [1-({5-chloro-2-[(2-methylpropyl)oxy]phenyl}methyl)-5-propyl-N-(1,2,3,4-tetrahydro-6-isoquinolinyl)-1H-pyrazole-3-carboxamide hydrochloride], the IC50 was 3.16 to 10 µM.

With `CCc1cc(NC(=O)c2ccc3c(c2)CCNC3)nn1Cc1cc(Cl)ccc1OCC(C)C` [Example 1, N-[1-({5-chloro-2-[(2-methylpropyl)oxy]phenyl}methyl)-5-ethyl-1H-pyrazol-3-yl]-1,2,3,4-tetrahydro-6-isoquinolinecarboxamide hydrochloride], the IC50 is less than 3.16 µM.

Turning to `CC(C)COc1ccc(Cl)cc1Cn1nc(NC(=O)c2ccc3c(c2)CCNC3)cc1C1CC1` [Example 2, N-[1-({5-chloro-2-[(2-methylpropyl)oxy]phenyl}methyl)-5-cyclopropyl-1H-pyrazol-3-yl]-1,2,3,4-tetrahydro-6-isoquinolinecarboxamide hydrochloride], the IC50 is less than 3.16 µM.
